Reference: patent US20090149531A1, “CHEMICAL COMPOSITION DERIVED FROM P-HYDROXYPHENYL PROPIONIC ACID FOR THE TREATMENT OF PSORIASIS” (APOTEKNOS PARA LA PIEL, S.L., priority 2007, published 2009)
“And” between values parts separate entries of the source, which are not always exact repeats. Equal entries are not always repeated.

Columns and labels:
[1] = system: Salmonella typhimurium TA1535; assay: Ames test without external metabolisation, TA1535; format: cell-based; settings: no metabolic activation; for Colonies per plate: individual plates 1-4, A; for Colonies per plate / Colonies per plate, Mean: 48 hours; for Mutagenic Ind,: relative to H+/B+
Procedure: (§1) The mutagenic activity of compound A was evaluated using the Ames test without external metabolisation. The Ames test is based on the use of bacterial strains to detect mutations in the DNA in vitro using bacterial strains that make it possible to detect types of damage to the genome.
(§2) Bacteria of 4 strains of Salmonella typhimurium that are internationally recommended for this test, TA1535, TA1537, TA98 and TA100, were used. The test was carried out according to highly standardised protocols. […] The test was carried out without external metabolic activation. The plates were incubated at 37° C. and the reverting colonies were counted after 48 hours.

[2] = system: Salmonella typhimurium TA98; assay: Ames test without external metabolisation, TA98; format: cell-based; settings: no metabolic activation; for Colonies per plate: individual plates 1-4, A; for Colonies per plate / Colonies per plate, Mean: 48 hours; for Mutagenic Ind,: relative to H+/B+
Procedure: as §1, §2

[3] = Signs of toxicity and deaths in the hairless rat study; format: in vivo; settings: compound A at 1%, topical
Procedure: A Control Group was included, administered only with the vehicle (absolute ethanol).
(§3) The treatments were administered topically, once a day for 10 days (100 μg/side/animal). The animals were weighed on a daily basis throughout the study and the grade of erythema was evaluated (0=Absence of erythema, 1=Low grade erythema, 3=High grade erythema). On the last day of the study, day 11, the amount of corneous material extracted from the epidermis of the animals was evaluated.

[4] = system: cell hyperproliferation in hairless rats; assay: Model of desquamation in hairless rats: corneous material extracted; format: in vivo; settings: for amount of corneous material extracted, total sum of the right and left flanks, Portal No, 1 / amount of corneous material extracted, total sum of the right and left flanks, Portal No, 2 / amount of corneous material extracted, total sum of the right and left flanks, Portal No, 3 / amount of corneous material extracted, total sum of the right and left flanks, Portal No, 4 / amount of corneous material extracted, total sum of the right and left flanks, Portal No, 5 / amount of corneous material extracted, total sum of the right and left flanks, Portal No, 6: day 11
Procedure: The activity of compound A on cell hyperproliferation in hairless rats was evaluated using the model of desquamation in hairless rats described in the publication: Bräutigam, M., Hübner, H., Rach, P., Thieroff-Ekerdi, R. “Effects of Calcipotriol (MC 903) and Calcitriol after Topical Application on the Skin of Hairless Rats”, Skin Pharmacol 1992; 5:87-92.
(§4) To do this Calcitriol was used as the reference product at 0.01% and compound A was used as the test product at 1% and 0.1% (100 μg/cm^2 and 10 μg/cm^2, respectively). A Control Group was included, administered only with the vehicle (absolute ethanol).
The animals were randomly distributed into the following experimental groups:
as §3

[5] = Assessment of erythema in the hairless rat study; format: in vivo, hairless rats; settings: 0=absence, 1=low grade, 3=high grade
Procedure: as §4, §3

[6] = system: Salmonella typhimurium TA100; assay: Ames test without external metabolisation, TA100; format: cell-based; settings: no metabolic activation; for Colonies per plate: individual plates 1-4, A; for Colonies per plate / Colonies per plate, Mean: 48 hours; for Mutagenic Ind,: relative to H+/B+
Procedure: as §1, §2

[7] = system: Salmonella typhimurium TA1537; assay: Ames test without external metabolisation, TA1537; format: cell-based; settings: no metabolic activation; for Colonies per plate: individual plates 1-4; for Colonies per plate / Colonies per plate, Mean: 48 hours; for Mutagenic Ind,: relative to H+/B+
Procedure: as §1, §2

[8] = Permeability study, pig ear skin in Franz cell; format: in vitro ADME; settings: hydroalcoholic solution 63.6 μg/ml or 6.36 μg/ml
Procedure: Skin from pig ears was used as the experimental system to which a hydroalcoholic solution of compound A 6.36×10^−2 mg/ml and 6.36×10^−3 mg/ml was applied, the reference product being a control hydroalcoholic solution (without compound A). For this study 4 different hydroalcoholic solutions were prepared. The first included 6.36 μg/ml of compound A, the second included 63.6 μg/ml, and the third and fourth were control solutions without compound A. All the preparations were tested on the pig ear skin experimental system. Samples were taken in the diffuser compartment at 6 different times (0, 1, 2, 6, 12 and 24 hours). All the samples (recipients) were quantified by HPLC. FIG. 1. Concentration of compound A in the recipient of the Franz cell for a sample with a concentration of 63.6 μg/ml of A. FIG. 2. Concentration of compound A in the recipient of the Franz cell for a sample with a concentration of 6.36 μg/ml of A.

[9] = Compound A 0.1% (10 μg/cm^2) topical once a day for 10 days
[10] = Compound A 1% (100 μg/cm^2) topical once a day for 10 days

**Q.** What does the source list for C=C1C(=O)O[C@H](CCc2ccc(OC)cc2)[C@@H]1C [Compound A]?
**A.** Colonies per plate ([1]; Comp. A 10 μg/ml): 1 (2×) and 2 and 0; Colonies per plate, Mean ([1]; Comp. A 10 μg/ml): 1; Mutagenic Ind, ([1]; Comp. A 10 μg/ml): 0.5; Colonies per plate ([1]; Comp. A 100 μg/ml): 1 (2×) and 2 and 0; Colonies per plate, Mean ([1]; Comp. A 100 μg/ml): 1; Mutagenic Ind, ([1]; Comp. A 100 μg/ml): 0.5; Colonies per plate ([1]; Comp. A 1 mg/ml): 1 (2×) and 0 and 2; Colonies per plate, Mean ([1]; Comp. A 1 mg/ml): 1; Mutagenic Ind, ([1]; Comp. A 1 mg/ml): 0.5; Ames test result (mutagenic effects) ([1]; TA1535, concentrations evaluated 10 μg/ml to 1 mg/ml): negative; Colonies per plate ([2]; Comp. A 10 μg/ml): 9 and 6 and 12 and 14; Colonies per plate, Mean ([2]; Comp. A 10 μg/ml): 10.25; Mutagenic Ind, ([2]; Comp. A 10 μg/ml): 1.079; Colonies per plate ([2]; Comp. A 100 μg/ml): 15 and 12 (2×) and 8; Colonies per plate, Mean ([2]; Comp. A 100 μg/ml): 11.75; Mutagenic Ind, ([2]; Comp. A 100 μg/ml): 1.237; Colonies per plate ([2]; Comp. A 1 mg/ml): 8 and 4 and 6 and 17; Colonies per plate, Mean ([2]; Comp. A 1 mg/ml): 8.75; Mutagenic Ind, ([2]; Comp. A 1 mg/ml): 0.9211; Ames test result (mutagenic effects) ([2]; TA98, concentrations evaluated 10 μg/ml to 1 mg/ml): negative; signs of toxicity [3]: none of the animals presented signs of toxicity; amount of corneous material extracted, total sum of the right and left flanks, Portal No, 1 [4, 9]: 3.1 ± 0.17 mg; amount of corneous material extracted, total sum of the right and left flanks, Portal No, 2 [4, 9]: 1.7 ± 0.08 mg; amount of corneous material extracted, total sum of the right and left flanks, Portal No, 3 [4, 9]: 1.1 ± 0.14 mg; amount of corneous material extracted, total sum of the right and left flanks, Portal No, 4 [4, 9]: 1.1 ± 0.22 mg; amount of corneous material extracted, total sum of the right and left flanks, Portal No, 5 [4, 9]: 1.1 ± 0.28 mg; amount of corneous material extracted, total sum of the right and left flanks, Portal No, 6 [4, 9]: 8.1 ± 0.47 mg; amount of corneous material extracted, total sum of the right and left flanks, Portal No, 1 [4, 10]: 3.1 ± 0.75 mg; amount of corneous material extracted, total sum of the right and left flanks, Portal No, 2 [4, 10]: 2.7 ± 0.23 mg; amount of corneous material extracted, total sum of the right and left flanks, Portal No, 3 [4, 10]: 2.0 ± 0.26 mg; amount of corneous material extracted, total sum of the right and left flanks, Portal No, 4 [4, 10]: 1.4 ± 0.169 mg; amount of corneous material extracted, total sum of the right and left flanks, Portal No, 5 [4, 10]: 1.4 ± 0.23 mg; amount of corneous material extracted, total sum of the right and left flanks, Portal No, 6 [4, 10]: 12.6 ± 0.76 mg; effect on the animals' skin (corneous material extracted) ([4]; compound A at 0.1%, topical): no effect; amount of corneous material extracted in relation to the control group and compound A at 0.1% ([4]; compound A at 1%, Student Newman Keuls, p<0.01): statistically significant differences; Assessment of erythema (mean grade) ([5]; Compound A 0.1% topical once a day, Baseline): 0.0 ± 0.00; Assessment of erythema (mean grade) ([5]; Compound A 0.1% topical once a day, Day 2): 0.0 ± 0.00; Assessment of erythema (mean grade) ([5]; Compound A 0.1% topical once a day, Day 3): 0.0 ± 0.00; Assessment of erythema (mean grade) ([5]; Compound A 0.1% topical once a day, Day 4): 0.0 ± 0.00; Assessment of erythema (mean grade) ([5]; Compound A 0.1% topical once a day, Day 5): 0.0 ± 0.00; Assessment of erythema (mean grade) ([5]; Compound A 0.1% topical once a day, Day 6): 0.0 ± 0.00; Assessment of erythema (mean grade) ([5]; Compound A 0.1% topical once a day, Day 7): 0.0 ± 0.00; Assessment of erythema (mean grade) ([5]; Compound A 0.1% topical once a day, Day 8): 0.0 ± 0.00; Assessment of erythema (mean grade) ([5]; Compound A 0.1% topical once a day, Day 9): 0.0 ± 0.00; Assessment of erythema (mean grade) ([5]; Compound A 0.1% topical once a day, Day 10): 0.0 ± 0.00; Assessment of erythema (mean grade) ([5]; Compound A 0.1% topical once a day, Day 11): 0.0 ± 0.00; Assessment of erythema (mean grade) ([5]; Compound A 1% topical once a day, Baseline): 0.0 ± 0.00; Assessment of erythema (mean grade) ([5]; Compound A 1% topical once a day, Day 2): 1.0 ± 0.00; Assessment of erythema (mean grade) ([5]; Compound A 1% topical once a day, Day 3): 1.0 ± 0.00; Assessment of erythema (mean grade) ([5]; Compound A 1% topical once a day, Day 4): 1.2 ± 0.11; Assessment of erythema (mean grade) ([5]; Compound A 1% topical once a day, Day 5): 1.3 ± 0.17; Assessment of erythema (mean grade) ([5]; Compound A 1% topical once a day, Day 6): 1.5 ± 0.22; Assessment of erythema (mean grade) ([5]; Compound A 1% topical once a day, Day 7): 1.5 ± 0.22; Assessment of erythema (mean grade) ([5]; Compound A 1% topical once a day, Day 8): 1.2 ± 0.40; Assessment of erythema (mean grade) ([5]; Compound A 1% topical once a day, Day 9): 0.9 ± 0.15; Assessment of erythema (mean grade) ([5]; Compound A 1% topical once a day, Day 10): 0.9 ± 0.15; Assessment of erythema (mean grade) ([5]; Compound A 1% topical once a day, Day 11): 1.2 ± 0.17; Colonies per plate ([6]; Comp. A 10 μg/ml): 38 and 41 and 44 and 54; Colonies per plate, Mean ([6]; Comp. A 10 μg/ml): 44.25; Mutagenic Ind, ([6]; Comp. A 10 μg/ml): 0.9124; Colonies per plate ([6]; Comp. A 100 μg/ml): 45 and 35 and 31 and 51; Colonies per plate, Mean ([6]; Comp. A 100 μg/ml): 40.5; Mutagenic Ind, ([6]; Comp. A 100 μg/ml): 0.8351; Colonies per plate ([6]; Comp. A 1 mg/ml): 52 and 37 and 38 and 40; Colonies per plate, Mean ([6]; Comp. A 1 mg/ml): 44; Mutagenic Ind, ([6]; Comp. A 1 mg/ml): 0.9072; Ames test result (mutagenic effects) ([6]; TA100, concentrations evaluated 10 μg/ml to 1 mg/ml): negative; Colonies per plate ([7]; Comp. A 10 μg/ml, A): 0 (3×) and 1; Colonies per plate, Mean ([7]; Comp. A 10 μg/ml): 0.25; Mutagenic Ind, ([7]; Comp. A 10 μg/ml): 0.5; Colonies per plate ([7]; Comp. A 100 μg/ml, A): 0 (2×) and 1 and 2; Colonies per plate, Mean ([7]; Comp. A 100 μg/ml): 0.75; Mutagenic Ind, ([7]; Comp. A 100 μg/ml): 1.5; Colonies per plate ([7]; Comp. A 1 mg/ml): 0; Colonies per plate, Mean ([7]; Comp. A 1 mg/ml): 0; Mutagenic Ind, ([7]; Comp. A 1 mg/ml): 0; Ames test result (mutagenic effects) ([7]; TA1537, concentrations evaluated 10 μg/ml to 1 mg/ml): negative; amount of compound A dissolved in the recipient ([8]; samples at 0-24 hours, HPLC quantification limit): < 0.01 mg/mL; transdermal flow through the skin of the pig ear ([8]; up to 24 hours): no transdermal flow
